The text below walks through data of patent US6025491A, “Water soluble onium salt of taxo-diterpenoid” (The Scripps Research Institute, priority 1998, dated 2000).

Series [1] in a line: taxol release / breakdown of taxol-2'-MPT in plasma. In kind it is in vitro ADME, human. On the procedure:
(§1) Due to a difference in retention time using our standard HPLC conditions (see FIG. 1) and differing ultraviolet absorption maxima (1280 /1254 =1.6 for 2 and 0.3 for 1), the stability of 2 was easily assayed by HPLC (FIG. 1). […] In phosphate buffered saline (PBS) or ammonium acetate--phosphate buffer systems of pH 6.0 to 7.3, 2 is stable at 25° C. for over 21 days. Taxol-2'-MPT (2) is, however, unstable in 5% HCl (pH 1.1) and brine.
(§2) Under these conditions 20% of total is recovered. More particularly, Taxol-2'-MPT (2) was dissolved in the aqueous system with the aid of sonication for five minutes. Aliquots were then removed at the times shown and partitioned into methylene chloride to quench the reaction. Samples were then analyzed using a Waters Maxima HPLC instrument equipped with an autoinjector (3.9×300 mm C18 column equipped with a precolumn. The flow rate was 1.5 mL/minute. The eluent gradient A-B extended over 30 minutes. "A" was 80% 80 mM ammonium acetate, pH 6.0. "B" was 100% methanol. An ultraviolet diode array detector was employed. The ratio of compound 2 (Rf 16.2 min.) to taxol (compound 1, Rf 16.8 min.) remaining was determined from the relative areas of the peaks after normalization with previously determined calibration curves.

The test system of series [2] is A549 non-small cell lung adenocarcinoma xenograft. In words: efficacy in lung tumor xenograft nude mouse model. In kind it is in vivo, nude mice (human lung carcinoma xenografts). As to conditions: I.P. day 1, 3 and 7; taxol 18.0 mg/kg in Cremaphor/D5W; 2 at 23.9 mg/kg. (Xenograft models place foreign cells or tissue in a host animal.)
Method: The tumor model was generated from an ATCC A549 non-small cell lung adenocarcinoma cell line that was maintained under the standard cell proliferation conditions (37° C., 5% carbon dioxide in sterile air). Hemocytometer counted cells suspended in Hanks medium (Gibco, Grand Island N.Y.) were implanted S.C.
Series [3] has as its system immunoglobulins. In words: displacement of MPT group by immunoglobulins. In kind it is in vitro ADME. The text has this: (§3) However, the release of taxol from taxol-2'-MPT can also be catalyzed by serum protein and by proteins having nucleophilic groups. […] Dialysis of the protein:taxol intermediate indicates a dissociation period of hours or days. Displacement of the MPT group by serum proteins seems to be specific for such serum proteins. […] The precise nature of the bonding between the protein and taxol has not been characterized. Scheme 2 illustrates alternative pathways for MPT release.

Series [4] relates to tubulin. In words: microtubule (tubulin) polymerization-depolymerization measurements. In kind it is biochemical. The following applies: for suppression of calcium chloride promoted depolymerization: 10^-6 M drug, 0.25 mM CaCl2, OD 340 nm; for suppression of calcium chloride promoted depolymerization / microtubule polymerization-depolymerization: tubulin 1.0 mg/mL; for microtubule polymerization-depolymerization: 10^-6 drug, 1.0 mM GTP, 0.25 mM CaCl2, 37° C. The protocol: Tubulin polymerization-depolymerization measurements are illustrate in FIG. 3. Negative controls are shown with triangles; positive taxol controls are shown with diamonds; and taxol-2'-MPT, i.e., compound 2 is shown with dots.
More particularly, measurement were performed in 96 well plates at 37° C. following the protocol of R. Merlock and W. Wrasidlo (Analytical Biochemistry 1993, in press). Calcium chloride addition is indicated by the arrow. In each case, 1.0 mM GTP was used to promote the initial polymerization of tubulin. Negative control employed tubulin (1.0 mg/mL) alone, CaCl2 (0.25 mM) added after 20 minutes. Positive taxol control employed tubulin (1.0 mg/mL) with taxol (10^-6 M) and CaCl2 (0.25 mM) added after 20 minutes. The experimental taxol-2'-MPTemployed tubulin (1.0 mg/mL) with taxol-2'-MPT (10^-6) and CaCl2 (0.25 mM) added after 20 minutes. Turbidity was measured as optical density at 340 nm using a microplate reader (Molecular Devices Thermomax).

Series [5] deals with human leukemia.
Method: (§4) More particularly, cells were plated on 96 well plates with the following controls: no cells and toxic control (1×10^-3 M SDS). The drug was added to the first set of wells and diluted via standard dilution method from the stock. Plates were incubated at 37° C., 5% CO2 in sterile air in an humidified incubator for 72 hours. An aliquot of 50 μL of a solution of 2,3-bis(methoxy-4-nitro-5-sulfophenyl)-5-[(phenylamino) carbonyl]-1H-tetrazolium hydroxide (XTT), 1 mg mL^-1, in phosphate buffered saline (PBS, 100 mM) was added to the wells. In the presence of viable cells, this colorless clear media is enzymatically altered to give a pink coloration. The plates were read at 450 nm using a plate reader. Percentage cytotoxicity was calculated using the formula: % C=1-(OD toxin)(OD growth control)^-1 (100).
For series [6], the system named is non-serum proteins. In words: displacement of MPT group by non-serum proteins. In kind it is in vitro ADME. As to conditions: tested non-serum proteins.
Excerpt: as §3

The test system of series [7] is cervical carcinoma.
Method: as §4
Series [8] in a line: kinetics of taxol release from taxol-2'-MPT in aqueous solutions. In kind it is physicochemical. The following applies: 25° C.; for taxol release: over 11 minutes. On the procedure:
as §2

Series [9] has as its system serum albumen. In words: displacement of MPT group by serum albumen. In kind it is in vitro ADME.
Excerpt: as §3

Series [10] has as its system metastatic melanoma.
Method: as §4
Series [11] concerns serum protein. In words: displacement of MPT group by serum protein, dialysis of protein:taxol intermediate. In kind it is in vitro ADME. The following applies: contacted with serum protein.
Series [12] is described as follows: stability measurements by HPLC (solid state and aqueous media). In kind it is physicochemical. The following applies: for stability duration: pH 6.0 to 7.3, 25° C. On the procedure:
as §1, §2

The procedure of series [13]:
The solubility and partition coefficient data for 2 and taxol were determined using an HPLC method.
Solubility was found by forming a solution in water with the aid of sonication for five minutes, centrifugation of the samples, and injection of the supernatant. The values reported were normalized using calibration curves constructed for both compounds by preparing known concentrations in the range 1×10^-6 to 1×10^-3 M in methylene chloride and subjecting to HPLC analysis under the same conditions. […] Partition coefficients were determined by dissolving the compound in the organic phase, shaking the resulting solution with water for ten minutes, and analyzing each phase by HPLC as above.

Series [14] in a line: self-assembly: optical density at 340 nm and transmission electron microscopy. In kind it is physicochemical. The text has this: Transmission electron microscopy (TEM) confirmed the presence of supramolecular structures in these solutions. […] It is likely that the long term stability of these solutions is due, at least in part, to stabilization provided by this structured environment.

For series [15] the following is noted: formulated in Cremaphor (polyoxyethylated castor oil) and ethanol; cited from earlier work.
In series [16] the test system is metastatic melanoma. In words: cytotoxicity (XTT), metastatic melanoma.
Method: as §4
Series [17] concerns human leukemia. In words: cytotoxicity (XTT), human leukemia. (In general: Tetrazolium assays rely on reduction of a dye to a coloured formazan, in cell work by metabolically active cells.)
Method: as §4
For series [18] the following is noted: background statement; cited from earlier work.
The subject of series [19] is cervical carcinoma. In words: cytotoxicity (XTT), cervical carcinoma.
Method: as §4

Counter-ions that a name gives are not always drawn. Like-named read-outs stand apart in the source and are kept apart here. Some results are limits rather than exact numbers.

Regarding `CC(=O)O[C@H]1C(=O)[C@@]2(C)[C@H]([C@H](OC(=O)c3ccccc3)[C@]3(O)C[C@H](OC(=O)[C@H](Oc4cccc[n+]4C)[C@@H](NC(=O)c4ccccc4)c4ccccc4)C(C)=C1C3(C)C)[C@]1(OC(C)=O)CO[C@@H]1C[C@@H]2O` [taxol-2'-MPT, Taxol-2'-MPT (methylpyridinium tosylate)], the “breakdown in human plasma” value in series [1] (incubated at 37° C. with human plasma) was “breaks down rapidly”. The “time to complete conversion of 2 into taxol” value in series [1] (plasma, methylene chloride extraction, 25° C.) is at most 10 min. For the same compound, the “taxol discharge in sera” value in series [1] (sera) is “rapidly discharges taxol in sera”. Besides, the “control of tumor growth compared with taxol” value in [2] is given as “at least comparable to that of taxol”. For the same compound, the “effectiveness in displacing the MPT group” value in series [3] and in series [9] was “particularly effective” in each case. In addition, in [4], the “suppression of calcium chloride promoted depolymerization” value was “not by taxol-2'-MPT”. Besides, the “microtubule polymerization-depolymerization” value was “does not affect the tubulin-microtubule equilibria” in series [4] (listed as 2); “very similar to GTP-saline controls and drastically different from taxol” in series [4] (listed as taxol-2'-MPT (2)). Moreover, the “binding to tubulin in the manner of taxol” value in series [4] (buffered aqueous environment) is on record as “does not appear to bind to tubulin in the manner of taxol”. Also, the cytotoxicity level result in [5], in [7] and in series [10] was “Extremely high” throughout. Further, the “activity in displacing the MPT group” value in series [6] is recorded as “seemed to lack this activity”. Moreover, the taxol release result in series [8] (5% dextrose), in series [8] (pH 6.2 phosphate buffered saline) and in series [8] (sterile water) was “no taxol release is observed” throughout. The “stability in water and aqueous buffer solutions” value in [8] is “stable in water and aqueous buffer solutions”. Moreover, the “reaction with serum protein” value in series [11] is “observed to displace its MPT group and form a protein:taxol intermediate”. For the same compound, the stability result in series [12] (5% HCl (pH 1.1)) is “unstable”; in series [12] (aqueous media at physiological pH and ion strength), “essentially completely stable”; in series [12] (brine), “unstable”. The stability duration entry in series [12] (ammonium acetate--phosphate buffer systems) and in [12] (phosphate buffered saline (PBS)) was “over 21 days” throughout. The “stability, onset of slow degradation” value in series [12] (in 1.5% saline), in series [12] (in 5% dextrose) and in [12] (in water) was above 4 days in each case. For the same compound, the “solubility in water compared with taxol” value in series [13] was “significantly more soluble in water than the parent taxol”. In series [14] (OD 340 nm, buffered solutions), the “critical concentration for exponential increase in optical density (critical aggregation concentration)” value was 400 µM. Besides, in series [14] (TEM, fibrillar structure), the “diameter of fibrillar aggregates” value is on record as “ca. 80 Å”. Also, the “helical twist of fibrillar aggregates” value in series [14] (TEM, fibrillar structure) is listed as “about 7”. Also, the “length of fibrillar aggregates” value in [14] (TEM, fibrillar structure) was “up to 800 Å”. For the same compound, the “diameter of spherical structures” value in series [14] (TEM, freshly sonicated solutions) was “about 50 Å”. Further, the “concentration above which haze and diffuse light scattering appear” value in series [14] (buffered solutions) was “greater than 1×10^-3 M”. Moreover, the “appearance of water solutions” value in series [14] (water, all concentrations examined) was “optically clear”.

Take `CC(=O)O[C@H]1C(=O)[C@@]2(C)[C@H]([C@H](OC(=O)c3ccccc3)[C@]3(O)C[C@H](OC(=O)[C@H](O)[C@@H](NC(=O)c4ccccc4)c4ccccc4)C(C)=C1C3(C)C)[C@]1(OC(C)=O)CO[C@@H]1C[C@@H]2O` [taxol]: the “side effects of formulation” value in series [15] is on record as “hypersensitivity reactions”. Also, the cytotoxicity level entry in series [16], in series [17] and in [19] was “Extremely high” each time. Besides, the “suppression of calcium chloride promoted depolymerization” value in [4] is “suppressed by taxol”. In addition, in series [4] (taxol recovered from human plasma treated with 2), the “microtubule stabilization by taxol recovered from plasma treated with 2” value is “exhibited the expected microtubule stabilization”. In addition, the water solubility result in [18] was “less than 1.5×10^-6 M”. For the same compound, the “Partition Coefficient [octanol]/[water]” value in series [13] is given as above 10000. Moreover, in [13] (water), the “Solubility in Water” value was below 1.5 µM.
